Source: ChEMBL document CHEMBL4041480, “Natural and synthetic bioactive inhibitors of glycogen synthase kinase” (Eur J Med Chem, 2017)
Each block holds one compound with its values, some of them ahead of it.

Key:
[1] = biological target: T1, Glycogen synthase kinase-3 beta (Homo sapiens, UniProt P49841)
[2] = biological target: T1, Glycogen synthase kinase-3 beta; remark: listed apart in the source
[3] = biological target: T1, Glycogen synthase kinase-3 beta; remark: listed apart in the source
Description: Inhibition of full length recombinant human His-tagged GSK3beta expressed in baculovirus expression system using Ser/Thr 9 peptide substrate by Z'-LYTE assay

[4] = biological target: T1, Glycogen synthase kinase-3 beta; remark: listed apart in the source
Description: Inhibition of GST-tagged GSK3beta (unknown origin) expressed in Escherichia coli BL21-CodonPlus (DE3) by Z'-LYTE assay

T1 sequence (P49841 whole entry): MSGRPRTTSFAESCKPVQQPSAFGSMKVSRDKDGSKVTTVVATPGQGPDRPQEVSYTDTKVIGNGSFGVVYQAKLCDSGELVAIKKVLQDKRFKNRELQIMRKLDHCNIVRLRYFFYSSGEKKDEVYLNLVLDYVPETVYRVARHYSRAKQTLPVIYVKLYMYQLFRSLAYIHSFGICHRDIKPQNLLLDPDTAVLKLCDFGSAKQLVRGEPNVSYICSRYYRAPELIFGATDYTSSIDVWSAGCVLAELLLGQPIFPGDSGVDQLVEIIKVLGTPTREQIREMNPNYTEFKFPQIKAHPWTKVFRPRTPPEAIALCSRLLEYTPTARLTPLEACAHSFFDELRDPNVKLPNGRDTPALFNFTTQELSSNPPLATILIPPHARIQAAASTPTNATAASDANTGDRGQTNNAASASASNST

IC50 [1]: 111 nM
Structure (SMILES): O=c1[nH]nc2c(NCCc3ccncc3)cc(Cl)cn12

IC50 [2]: 15000 nM
Structure (SMILES): [Zn]

IC50 [3]: 0.73 nM
Structure (SMILES): O=C1NC(=O)C(c2cn(CCC3N=CC=N3)c3ccccc23)=C1c1noc2ccccc12

Structure (SMILES): N=C1N[C@H]2c3c([nH]c(Br)c3Br)C(=O)C3CCC[C@@]32N1 (stereo not given in full)
IC50 [2]: 3000 nM

IC50 [4]: 340 nM
Structure (SMILES): Cn1cc(C2=C(c3nn(CCCN4CCOCC4)c4ncccc34)C(=O)NC2=O)c2ccccc21
